# In patent publication US4822790A, “1-Sulfo-2-oxoazetidine derivatives and their production” (Takeda Chemical Industries, Ltd., priority 1980, dated 1989):
# Key:
# [1] = target: T1, β-lactamase produced by Enterobacter cloacae PN 1282 (Enterobacter cloacae, UniProt P05364); experiment: Inhibitor concentration required to inhibit the β-lactamase (cephalosporinase) activity by 50%, micro-iodometric method; type: biochemical; conditions: 0.05M phosphate buffer (pH 7), 30° C., 10 min preincubation, cephalothin 0.1 mM, read-out: I50 (inhibitor concentration required to inhibit the enzyme activity by 50%) (converted)
# T1 construct: cephalothin substrate, micro-iodometric
# Experimental: "Determination of the inhibitor concentration required to inhibit the enzyme activity by 50%"
# The β-lactamase produced by Enterobacter cloacae PN 1282 is used as a typical example of cephalosporinase. The β-lactamase is incubated in 0.05M phosphate buffer (pH 7) with an appropriate dilution of an inhibitor preparation at 30° C. for 10 minutes. Cephalothin is then added in an amount sufficient to produce a final concentration of 0.1 mM, and the enzymatic reaction is allowed to proceed for 10 minutes. The enzyme activity is determined by the micro-iodometric method [Journal of general Microbiology, vol. 33, page 121 (1963)]. Hereinafter, the inhibitor concentration required to inhibit the enzyme activity by 50% is expressed as I50.
# Escherichia coli 0-111 = experiment: Antibacterial test (MIC), Escherichia coli 0-111; type: cell-based; conditions: Escherichia coli, 0111; medium TSA; read-out: Minimum inhibitory concentration (MIC)
# Excerpt: (§1) The following is media and compounds employed in the antibacterial test.
# (§2) TSA=Trypticase soy agar [Baltimore Biologicals (U.S.A.)]
# (§3) B-TSA=Blood trypticase soy agar
# Klebsiella pneumoniae DT = experiment: Antibacterial test (MIC), Klebsiella pneumoniae DT; type: cell-based; conditions: Klebsiella pneumoniae, read-out: Minimum inhibitory concentration (MIC)
# Excerpt: as §1, §2, §3
# [2] = tested on: Proteus vulgaris IFO 3988; experiment: Antibacterial test (MIC), Proteus vulgaris IFO 3988; type: cell-based; conditions: Proteus vulgaris, IFO3988, read-out: Minimum inhibitory concentration (MIC)
# Excerpt: as §1, §2, §3
# [3] = tested on: Pseudomonas morganii IFO 3168; experiment: Antibacterial test (MIC), Pseudomonas morganii IFO 3168; type: cell-based; conditions: IFO3168, medium TSA, read-out: Minimum inhibitory concentration (MIC)
# Excerpt: as §1, §2, §3
# T1 sequence (P05364 21-381): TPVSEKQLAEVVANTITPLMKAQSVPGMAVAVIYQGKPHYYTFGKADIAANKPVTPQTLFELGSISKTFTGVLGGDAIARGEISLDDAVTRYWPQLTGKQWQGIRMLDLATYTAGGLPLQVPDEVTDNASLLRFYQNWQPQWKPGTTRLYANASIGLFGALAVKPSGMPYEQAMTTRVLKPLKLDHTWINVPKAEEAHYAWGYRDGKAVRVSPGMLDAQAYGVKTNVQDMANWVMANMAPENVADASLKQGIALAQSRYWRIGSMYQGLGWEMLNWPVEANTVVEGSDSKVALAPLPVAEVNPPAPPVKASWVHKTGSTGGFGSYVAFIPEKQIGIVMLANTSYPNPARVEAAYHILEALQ
SMILES,IC50 [1] [nM],further results
CS[C@@H]1[C@H](NC(=O)c2c(-c3c(Cl)cccc3Cl)noc2C)C(=O)N1S(=O)(=O)O,96.5,
CON=C(C(=O)N[C@@H]1C(=O)N(S(=O)(=O)O)[C@@H]1SC)c1csc(N)n1,759,
CS[C@@H]1[C@H](NC(=O)C(=NOC(C)(C)C(=O)O)c2csc(N)n2)C(=O)N1S(=O)(=O)O,406,
"CCN1CCN(C(=O)N[C@@H](C(=O)NC2(OC)CN(S(=O)(=O)O)C2=O)c2ccccc2)C(=O)C1=O (single isomer, unassigned) [Compound C, Sodium 3-[D(-)-N-(4-ethyl-2,3-dioxo-1-piperazinocarbonyl)phenylglycinamido]-3-methoxy-2-oxoazetidine-1-sulfonate]",,MIC (Escherichia coli 0-111): 12.5 µg/mL; MIC (Klebsiella pneumoniae DT): 12.5 µg/mL; MIC [2]: 12.5 µg/mL; MIC [3]: > 100 µg/mL
CON=C(C(=O)N[C@@H]1C(=O)N(S(=O)(=O)O)[C@H]1Sc1ccccc1)c1csc(N)n1,59,
